Where two headings read alike, the source gives them in different places. Marks after values point to notes of the source that are not given here.
Legend:
[1] = system: NCI-H1299 human NSCLC xenograft tumors; settings: Compound A1 2 mg/kg 2QD 2on/5off p.o., docetaxel 15 mg/kg QD 1on/6off i.v.; for T/C area: relative mean tumor area, 20 treatment days
Text: The effect of combination treatment of an Mps-1 kinase inhibitor (Compound A1) with docetaxel, another SAC activating, […], anti-mitotic agent, used as standard of care in NSCLC patients, was studied in the NCI-H1299 taxane intrinsically resistant human lung carcinoma (NSCLC) xenograft model in nude mice.
Docetaxel was applied intravenously once per week upon its respective MTD. Substances were formulated in optimal vehicles to achieve solutions. Animal body weight and tumor size were determined two times weekly. […] For combination treatment Compound A1and docetaxel were applied at the same day within a time frame of 4 hours. Animals of control and Mps-1 kinase inhibitor monotherapy group were treated for a duration of 20 days. Animals of docetaxel monotherapy and docetaxel/Mps-1 kinase inhibitor combination treatment groups were treated for a duration of 42 days. At the end of the study after one final treatment plasma and tumors were sampled for PK analysis and final tumor weight was determined.
(§1) NCI-H1299 human NSCLC tumor cells were implanted s.c. into nude mice on day 0. […] Compound A1 was administered orally (p.o.) upon 2.0 mg/kg twice daily (2QD) for 2 days on/5 days off (2 on/5 off) in monotherapy and in combination with docetaxel. Docetaxel was administered intravenously (i.v.) upon 15 mg/kg once daily (QD) once per week (1 on/6 off) in monotherapy and combination therapy. Tumor growth was monitored by determination of the tumor area using calliper measurement two to three times weekly. FIG. 2A: Time course of tumor growth. FIG. 2B: Weight of tumors in docetaxel/Mps-1 kinase inhibitor combination group at the end of the study at day 52 after tumor cell inoculation. FIG. 2C: Time course of animal body weight change during the course of the study.

[2] = Maximum tolerated dose (MTD); type: in vivo, nude mice
[3] = system: IGR-OV1 human ovarian carcinoma model
Procedure: Paclitaxel was administered IV QW at 50% of its respective MTD.

[4] = system: MKN1 human gastric carcinoma model; settings: mouse, in vivo
Procedure: (§3) Compound A1 was administered PO in the 2QD intermittent (2 days on/5 days off) dosing schedule up to the respective MTD in single-agent treatment and at a dose of 40% of the single-agent MTD in combination. Paclitaxel was administered IV QW at its respective MTD. Treatment for all groups started at a tumor size of 27 mm^2, on day 7 after tumor cell inoculation. For combination treatment, Compound A1 and paclitaxel were administered on the same day within a time of 4 hours. Animals of the control and Compound A1 single-agent treatment groups were treated for 40 days. Animals of the paclitaxel single-agent and Compound A1 with paclitaxel combination treatment groups were treated for 78 days.

[5] = system: primary human NSCLC xenograft model LU387; test: Combination with paclitaxel in primary human NSCLC xenograft model LU387; type: in vivo, nude mice; settings: day 42; paclitaxel 20 mg/kg IV QW for 6 weeks, alone or in combination with Compound A1
Procedure: The effect of Compound A1 and paclitaxel compared with a vehicle was evaluated in the subcutaneous primary human NSCLC xenograft model LU387 on nude mice.

[6] = system: MKN1 human gastric carcinoma model; test: Combination with paclitaxel in MKN1 human gastric carcinoma model
Procedure: as §3

A2780cis xenograft model = system: A2780cis xenograft model
Procedure: The effect of the combination treatment of Compound A1 with paclitaxel was studied in a human ovarian carcinoma model in nude mice, namely in the adaptive cisplatin-resistant and paclitaxel intrinsically-resistant A2780cis xenograft model. […] Paclitaxel was administered IV QW at its respective MTD.

[7] = system: MDA-MB 231 human triple-negative breast cancer xenograft tumors; settings: Compound A1 1 mg/kg 2QD 2on/5off p.o., paclitaxel 20 mg/kg QD 1on/6off i.v.; for T/C area: relative mean tumor area, 28 treatment days
Procedure: The effect of combination treatment of an Mps-1 kinase inhibitor (Compound A1) and paclitaxel was studied in the MDA-MB 231 human triple-negative (no expression of Her2/neu, progesterone receptor, estrogen receptor) xenograft model in nude mice.
(§2) Paclitaxel was applied intravenously once per week upon its respective MTD. Substances were formulated in optimal vehicles to achieve solutions. Animal body weight and tumor size were determined three times weekly. […] For combination treatment, Compound A1 and paclitaxel were applied at the same day within a time frame of 4 hours. Animals of control and monotherapy group (Compound A1 only) were treated for a duration of 28 days. Animals of paclitaxel monotherapy and paclitaxel/Mps-1 kinase inhibitor treatment groups were treated for a duration of 50 days. At the end of the study after one final treatment plasma and tumors were sampled for PK analysis and final tumor weight was determined.
MDA-MB 231 human breast cancer cells were implanted s.c. into nude mice on day 0. […] Compound A1 was administered orally (p.o.) upon 1 mg/kg twice daily (2QD) for 2 days on/5 days off (2 on/5 off) in monotherapy and in combination with paclitaxel. Paclitaxel was administered intravenously (i.v.) upon 20 mg/kg once daily (QD) once per week (1 on/6 off) in monotherapy and combination therapy. Tumor growth was monitored by determination of the tumor area using calliper measurement three times weekly. FIG. 3A: Time course of tumor growth. FIG. 3B: Weight of tumors in paclitaxel/Mps-1 kinase inhibitor combination group at the end of the study at day 73 after tumor cell inoculation. FIG. 3C: Time course of animal body weight change during the course of the study.

[8] = system: cisplatin-resistant ovarian cancer cells A2780cis; test: Mode of action: histopathology of A2780cis tumors after treatment
Procedure: To explain in vivo the mode of action of an Mps-1 kinase inhibitor in single-agent treatment and combination treatment with a taxane, female NMRI (Naval Medical Research Institute) nude mice were implanted with cisplatin-resistant ovarian cancer cells A2780cis.
Paclitaxel was administered IV (intravenous(ly)) QW (once per week (meaning the 1 day on/6 days off treatment schedule)) at its MTD (24 mg/kg) in single-agent and combination treatments. […] Tumors were embedded in paraffin, sections were prepared and stained with hematoxylin & eosin for histopathological analysis.

[9] = system: NCI-H1299 human NSCLC xenograft tumors; settings: Compound A1 0.45 mg/kg 2QD 2on/5off p.o., paclitaxel 20 mg/kg QD 1on/6off i.v.; for T/C area: relative mean tumor area, 28 treatment days
Procedure: The effect of combination treatment of an Mps-1 inhibitor and paclitaxel was studied in the NCI-H1299 taxane intrinsically resistant human lung carcinoma (NSCLC) xenograft model in nude mice.
as §2, with “were determined two to three times” for “were determined three times”, “combination treatment, the Compound A1” for “combination treatment, Compound A1”, “and paclitaxel/Mps-1 inhibitor treatment” for “and paclitaxel/Mps-1 kinase inhibitor treatment”, “duration of 37 days. At” for “duration of 50 days. At”
as §1, with “FIGS. 1A and 1B show the response of NCI-H1299 human NSCLC xenograft tumors to treatment with Compound A1 in combination with paclitaxel. NCI-H1299” for “NCI-H1299”, “0.45” for “2.0”, “paclitaxel. Paclitaxel” for “docetaxel. Docetaxel”, “20” for “15”, “1A:” for “2A:”, “1B:” for “2B: Weight of tumors in docetaxel/Mps-1 kinase inhibitor combination group at the end of the study at day 52 after tumor cell inoculation. FIG. 2C:”

[10] = system: human glioblastoma model U87 MG; test: Combination with vincristine in human glioblastoma model U87 MG (intracerebral); type: in vivo, nude mice
Procedure: The study was designed to determine the response of this glioblastoma model to the treatment with the investigational Compound A1 and vincristine, both alone at a fixed dose, and vincristine in combination with two different doses, both lower than that of Compound A1 used in the monotherapy schedule. The size of the glioblastoma was used as read out parameter for response.
The cell culture derived human xenograft U87 MG was initiated by transplantation of the tumor cells into the left hemisphere of the mouse brain. Treatment was done in three cycles between day 3 and day 19. Mice were sacrificed at day 24, the brain isolated and shock frozen in 2 methyl-butane. Tumor size were determined as measure for tumor growth inhibition from cryo-slizes after staining.

[11] = after 78 treatment days, paclitaxel 24 mg/kg IV QW
[12] = day 24, single agents: Gr. B Compound A1 2.5 mg/kg p.o., Gr. C Vincristine 0.75 mg/kg i.p.

CC(=O)O[C@@]12CO[C@@H]1C[C@H](O)[C@@]1(C)C(=O)[C@H](O)C3=C(C)[C@@H](OC(=O)[C@H](O)[C@@H](NC(=O)OC(C)(C)C)c4ccccc4)C[C@@](O)([C@@H](OC(=O)c4ccccc4)[C@H]21)C3(C)C [Docetaxel, 1,7β,10β-trihydroxy-9-oxo-5β,20-epoxytax-11-ene-2α,4,13α-triyl 4-acetate 2-benzoate 13-{(2R,3S)-3-[(tert-butoxycarbonyl)amino]-2-hydroxy-3-phenylpropanoate}, reference compound]
Fatal Tox [1]: 0/8
Max. Body weight loss (%) [1]: −2%
T/C area [1]: 0.16^#
T/C area ([1]; listed as docetaxel): 0.16
MTD ([2]; nude, mouse, in vivo, Compound A1 PO 2QD 2 days on/5 days off, paclitaxel IV QW, docetaxel i.v. 1 day on/6 days off, read-out: MTD (maximum tolerated dose), single-agent): 15 mg/kg

CC(=O)O[C@H]1C(=O)[C@@]2(C)[C@H]([C@H](OC(=O)c3ccccc3)[C@]3(O)C[C@H](OC(=O)[C@H](O)[C@@H](NC(=O)c4ccccc4)c4ccccc4)C(C)=C1C3(C)C)[C@]1(OC(C)=O)CO[C@@H]1C[C@@H]2O [Paclitaxel, (2α,4α,5β,7β,10β,13α)-4,10-bis(acetyloxy)-13-{[(2R, 3S)-3-(benzoylamino)-2-hydroxy-3-phenylpropanoyl]oxy}-1,7-dihydroxy-9-oxo-5,20-epoxytax-11-en-2-yl benzoate, reference compound]
relative T/Carea ([3]; 38 treatment days, Compound A1 single agent 2.5 mg/kg PO 2QD, paclitaxel 12 mg/kg IV QW, combination with Compound A1 2 mg/kg PO 2QD): 0.34
anti-tumor efficacy (in words) ([3]; Compound A1 2.5 mg/kg single agent (38 days), paclitaxel 12 mg/kg and combination with Compound A1 2 mg/kg (treatment day 38 to 59)): clear tumor progression
tolerability (in words) ([3]; mouse, in vivo): well tolerated without critical body weight loss or toxicities
tolerability (in words) [4]: overall well tolerated without critical body weight loss
mean tumor size [5]: 1494 mm^3
relative T/Carea ([6]; 40 treatment days, paclitaxel 24 mg/kg IV QW, combination with Compound A1 1 mg/kg PO 2QD 2 days on/5 days off): 0.05
partial regression (% of tumors) [6, 11]: 20%
tumor growth delay (% of tumors) [6, 11]: 80%
anti-tumor efficacy (in words) ([6]; mouse, in vivo): overall disease stabilization
Fatal toxicity (number of animals) ([6]; paclitaxel group: Treatment Day 57, combination group: after the first treatment cycle): 1
relative T/Carea (A2780cis xenograft model; 14 treatment days, Compound A1 1 mg/kg PO 2QD 2 days on/5 days off, paclitaxel 24 mg/kg IV QW): 0.09
tolerability (in words) (A2780cis xenograft model; mouse, in vivo): well tolerated without critical body weight loss or toxicities
MTD (maximum tolerated dose), single-agent ([2]; paclitaxel i.v. 1 day on/6 days off, as stated for the NCI-H1299 study): 20 mg/kg
Fatal Tox [7]: 0/10
T/C area [7]: 0.14^#
T/C area ([7]; listed as paclitaxel): 0.14
histopathological phenotype of tumor tissue ([8]; paclitaxel 24 mg/kg IV QW single agent, 4 and 8 hours after treatment): induced atypical mitoses
histopathological phenotype of tumor tissue ([8]; paclitaxel 24 mg/kg IV QW single agent, 28, 32 and 48 hours after treatment): increased necrosis and apoptosis
Fatal Tox [9]: 0/10
T/C area [9]: 0.28^#
T/C area ([9]; listed as paclitaxel): 0.28

CC[C@]1(O)C[C@H]2CN(CCc3c([nH]c4ccccc34)[C@@](C(=O)OC)(c3cc4c(cc3OC)N(C=O)[C@H]3[C@@](O)(C(=O)OC)[C@H](OC(C)=O)[C@]5(CC)C=CCN6CC[C@]43[C@@H]65)C2)C1 [Vincristine, vincristine, reference compound]
inhibition of tumor growth ([10]; Gr. C vincristine alone, Gr. D combination of high dose Compound A1 and vincristine): 38.6%
Brain tumor inside [mm^2] ([10]; day 24, single agents: Gr. B Compound A1 2.5 mg/kg p.o. BIDx2x3, Gr. C Vincristine 0.75 mg/kg i.p. 1xqWx3): 10.69 +/− 6.71 mm^2
Brain tumor outside [mm^2] [10, 12]: 4.50 +/− 1.66 mm^2
Brain tumor total [mm^2] [10, 12]: 13.26 +/− 7.25 mm^2
T/C (inside T) [%] [10, 12]: 61.4%

— patent US20160128988A1, “COMBINATIONS FOR THE TREATMENT OF CANCER COMPRISING A MPS-1 KINASE INHIBITOR AND A MITOTIC INHIBITOR” (BAYER PHARMA AKTIENGESELLSCHAFT, priority 2013, published 2016)
